Measured values reported in patent US10441626B2, “Microparticles comprising GNRH made by PGSS” (Ferring B.V., priority 2013, dated 2019).
Where a SMILES comes first, the peptide text is derived from it. [ ]: non-standard residue; d: D form. The star is where a group is joined. dPhe(4-NHCONH2) = NC(=O)Nc1ccc(C[C@@H](N)C(=O)O)cc1; Dihydroorotyl(S) = O=C1C[C@@H](C(=O)*)NC(=O)N1; dPhe(4-Cl) = N[C@H](Cc1ccc(Cl)cc1)C(=O)O; Phe(4-NH2) = Nc1ccc(C[C@H](N)C(=O)O)cc1; d2Nal = N[C@H](Cc1ccc2ccccc2c1)C(=O)O; Lys(iPr) = CC(C)NCCCC[C@H](N)C(=O)O; NMeY = CN[C@@H](Cc1ccc(O)cc1)C(=O)O; d3Pal = N[C@H](Cc1cccnc1)C(=O)O

Columns and labels:
[1] = human, in vivo; cited from earlier work
[2] = Target plasma level calculated for pigs; type: in vivo, pig
From the text: These very initial studies in this pig model are understood to represent proof of concept that formulations of the invention may be able to provide sustained release for up to three months, especially after IM administration, in a human model.

testosterone = test: Plasma level needed to prevent testosterone breakthrough (rat); type: in vivo; conditions: between doses
Protocol: In the rat, the mean plasma concentration level of degarelix which is necessary to ensure there is no testosterone breakthrough between doses is 6 ng/mL, and this value was therefore selected as the target level for the present work. In other words, if the mean plasma concentration of degarelix is 6 ng/mL or greater after administration of a given formula, this is a good indicator that the formulation would be effective (for the duration of the study).

[3] = in vivo

Row | SMILES | allergic reaction risk [1] | target level of mean degarelix concentration [2] | mean plasma concentration necessary to ensure no testosterone breakthrough (testosterone) | efficacy and tolerability [3]
1 | CC(=O)N[C@H](Cc1ccc2ccccc2c1)C(=O)N[C@H](Cc1ccc(Cl)cc1)C(=O)N[C@H](Cc1cccnc1)C(=O)N[C@@H](CO)C(=O)N(C)[C@@H](Cc1ccc(O)cc1)C(=O)N[C@H](CC(N)=O)C(=O)N[C@@H](CC(C)C)C(=O)N[C@@H](CCCCNC(C)C)C(=O)N1CCC[C@H]1C(=O)N[C@H](C)C(N)=O [Abarelix] (Ac-[d2Nal][dPhe(4-Cl)][d3Pal]S[NMeY][dN]L[Lys(iPr)]P[dA]-NH2) | risk of serious allergic reactions, including anaphylaxis with hypotension and syncope |  |  | 
2 | CC(=O)N[C@H](Cc1ccc2ccccc2c1)C(=O)N[C@H](Cc1ccc(Cl)cc1)C(=O)N[C@H](Cc1cccnc1)C(=O)N[C@@H](CO)C(=O)N[C@@H](Cc1ccc(NC(=O)[C@@H]2CC(=O)NC(=O)N2)cc1)C(=O)N[C@H](Cc1ccc(NC(N)=O)cc1)C(=O)N[C@@H](CC(C)C)C(=O)N[C@@H](CCCCNC(C)C)C(=O)N1CCC[C@H]1C(=O)N[C@H](C)C(N)=O [degarelix, D-Alaninamide, N-acetyl-3-(2-naphthalenyl)-D-alanyl-4-chloro-D-phenylalanyl-3-(3-pyridinyl)-D-alanyl-L-seryl-4-[[[(4S)-hexahydro-2,6-dioxo-4-pyrimidinyl]carbonyl]amino]-L-phenylalanyl-4-[(aminocarbonyl)amino]-D-phenylalanyl-L leucyl-N6-(1-methylethyl)-L-lysyl-L-prolyl] (Ac-[d2Nal][dPhe(4-Cl)][d3Pal]S[Phe(4-NH2)](Dihydroorotyl(S))[dPhe(4-NHCONH2)]L[Lys(iPr)]P[dA]-NH2) |  | 8 ng/mL | 6 ng/mL | effective and well-tolerated without evidence of systemic allergic reactions
